Source: patent US20080206770A1, “SCREENING METHODS USED TO IDENTIFY COMPOUNDS THAT MODULATE SKIN STROMAL CELLS (FIBROBLASTS) ABILITY TO MODIFY FUNCTION OF EXTRACELLULAR MATRIX” (priority 2007, published 2008)

System: dermal fibroblasts isolated from 17 individuals
Assay: Real time RT-PCR of ECM components, nuclear hormone receptors and coregulators in fibroblasts from 17 individuals
Type: cell-based, human
Protocol: Total RNA was extracted from cells using RNA aqueous kit (Ambion, USA). First-strand cDNAs were synthesized with Superscript III reverse transcriptase (Invitrogen, USA) and 1 μg of total RNA using oligo d(T) priming in a final reaction volume of 40 μL.
Levels of specific mRNAs were measured by real-time RT-PCR using Platinum SYBR Green qPCR SuperMix UDG (Invitrogen) according the protocol on the LightCycler 2.0 (Roche, US). The cycling program steps were: for one cycle 50° C. 2 min, for one cycle 95° C. 2 min and for 45 cycles: 95° C. 10 s, 60° C. 10 s, 72° C. 10 s. All samples were run in triplicates. Results were analyzed with the comparative Ct method (from Applied Biosystems manual; Livak and Schmittgen, 2001). Every sample was normalized for the housekeeping gene GAPDH. Transcript levels in the atRA and TGFb1 treated samples were compared to control samples.

[1] = fibroblasts from 17 individuals, 1 μM, 24 hours

For `CC1=C(/C=C/C(C)=C/C=C/C(C)=C/C(=O)O)C(C)(C)CCC1` [all trans retinoic acid, all-trans retinoic acid], the “CTGF expression in RA treatment compared to control, from-to between individuals” value [1] was “(from −2.4 to 2.64) fold”, the “ELN expression in RA treatment compared to control, from-to between individuals” value [1] was “(from −2.44 to 3.02) fold” and the “FN 1 transcr.v.1 expression in RA treatment compared to control, from-to between individuals” value [1] was “(from −3.63 to 1.14) fold”. The “Individual variation of gene expression in RA treatment: CBP” value [1] was 5.32 fold, the “Individual variation of gene expression in RA treatment: COL1A1” value [1] was 9.5 fold and the “Individual variation of gene expression in RA treatment: COL1A2” value [1] was 4.96 fold. For the same molecule, the “Individual variation of gene expression in RA treatment: COL3A1” value [1] was 5.17 fold, the “Individual variation of gene expression in RA treatment: COL4A1” value [1] was 6.15 fold and the “Individual variation of gene expression in RA treatment: COL4A4” value [1] was 1.63 fold. The “Individual variation of gene expression in RA treatment: COL5A1” value [1] was 7.15 fold, the “Individual variation of gene expression in RA treatment: COL5A2” value [1] was 4.35 fold and the “Individual variation of gene expression in RA treatment: CTGF” value [1] was 5.04 fold. The “Individual variation of gene expression in RA treatment: ELN” value [1] was 5.46 fold, the “Individual variation of gene expression in RA treatment: FN 1 transcr.v.1” value [1] was 4.77 fold and the “Individual variation of gene expression in RA treatment: MMP1, collagenase 1” value [1] was 7.09 fold. The “Individual variation of gene expression in RA treatment: MMP2 gelatinase” value [1] was 5.05 fold, the “Individual variation of gene expression in RA treatment: MMP3 stromelysin” value [1] was 6.4 fold and the “Individual variation of gene expression in RA treatment: MMP7” value [1] was 16.46 fold. For the same molecule, the “Individual variation of gene expression in RA treatment: MMP10, stromelysin 2” value [1] was 12 fold, the “Individual variation of gene expression in RA treatment: MMP19” value [1] was 3.41 fold and the “Individual variation of gene expression in RA treatment: NCOA1” value [1] was 5.68 fold. The “Individual variation of gene expression in RA treatment: NCOA2” value [1] was 5.63 fold, the “Individual variation of gene expression in RA treatment: NCOA3” value [1] was 6.16 fold and the “Individual variation of gene expression in RA treatment: NCOA5” value [1] was 3.1 fold. For the same molecule, the “Individual variation of gene expression in RA treatment: NCOA6” value [1] was 3.43 fold, the “Individual variation of gene expression in RA treatment: NCOA7” value [1] was 4.44 fold and the “Individual variation of gene expression in RA treatment: NCOR1” value [1] was 4.2 fold. For the same molecule, the “Individual variation of gene expression in RA treatment: PC4” value [1] was 3.57 fold, the “Individual variation of gene expression in RA treatment: PPARG” value [1] was 4.59 fold and the “Individual variation of gene expression in RA treatment: RARA” value [1] was 4.44 fold. For the same molecule, the “Individual variation of gene expression in RA treatment: RARG” value [1] was 3.37 fold, the “Individual variation of gene expression in RA treatment: RXRA” value [1] was 4.34 fold and the “Individual variation of gene expression in RA treatment: RXRG” value [1] was 4.01 fold. For the same molecule, the “Individual variation of gene expression in RA treatment: TIMP1” value [1] was 4.21 fold, the “MMP1, collagenase 1 expression in RA treatment compared to control, from-to between individuals” value [1] was “(from −3.38 to 3.71) fold” and the “MMP2 gelatinase expression in RA treatment compared to control, from-to between individuals” value [1] was “(from −2.7 to 2.35) fold”. For the same molecule, the “MMP3 stromelysin expression in RA treatment compared to control, from-to between individuals” value [1] was “(from −3.73 to 2.67) fold”, the “MMP7 expression in RA treatment compared to control, from-to between individuals” value [1] was “(from −14.77 to 1.69) fold” and the “MMP10, stromelysin 2 expression in RA treatment compared to control, from-to between individuals” value [1] was “(from −5.15 to 6.84) fold”. The “MMP19 expression in RA treatment compared to control, from-to between individuals” value [1] was “(from −2.4 to 1.01) fold”, the “NCOA1 expression in RA treatment compared to control, from-to between individuals” value [1] was “(from −2.99 to 2.69) fold” and the “NCOA2 expression in RA treatment compared to control, from-to between individuals” value [1] was “(from −1.95 to 3.68) fold”. For the same molecule, the “NCOA3 expression in RA treatment compared to control, from-to between individuals” value [1] was “(from −2.02 to 4.14) fold”, the “NCOA5 expression in RA treatment compared to control, from-to between individuals” value [1] was “(from −1.25 to 1.85) fold” and the “NCOA6 expression in RA treatment compared to control, from-to between individuals” value [1] was “(from −1.44 to 1.99) fold”. For the same molecule, the “NCOA7 expression in RA treatment compared to control, from-to between individuals” value [1] was “(from −1.85 to 2.59) fold”, the “NCOR1 expression in RA treatment compared to control, from-to between individuals” value [1] was “(from −2.23 to 1.97) fold” and the “PC4 expression in RA treatment compared to control, from-to between individuals” value [1] was “(from −1.8 to 1.77) fold”. For the same molecule, the “PPARG expression in RA treatment compared to control, from-to between individuals” value [1] was “(from −1.64 to 2.95) fold”, the “RARA expression in RA treatment compared to control, from-to between individuals” value [1] was “(from −1.53 to 2.91) fold” and the “RARG expression in RA treatment compared to control, from-to between individuals” value [1] was “(from −1.45 to 1.92) fold”. For the same molecule, the “RXRA expression in RA treatment compared to control, from-to between individuals” value [1] was “(from −1.75 to 2.59) fold”, the “RXRG expression in RA treatment compared to control, from-to between individuals” value [1] was “(from −2.02 to 1.99) fold” and the “induced or repressed expression of different genes (Col1A1, Col4A1, Elastin, MMP1, MMP7)” value (in different fibroblast isolates, 17 individuals, 1 μM, 24 hours) was “up to 8 fold”. The “variation between individual fibroblasts of expression of coactivators NCOA1, NCOA2 and NCOA3” value (in response to atRA, 17 individuals) was “highest variation”.
